Laboratory results reported in US20130116148A1, “LIVER DISEASE MARKER, METHOD AND APPARATUS FOR MEASURING THE SAME, AND METHOD FOR ASSAYING PHARMACEUTICAL PREPARATION” (KEIO UNIVERSITY, priority 2010, published 2013).

Columns and labels:
glutathione = conditions: mouse, large quantities of APAP, cited from earlier work
[1] = test system: glutathione-biosynthesis pathway; assay: Administration of GCS inhibitor BSO and GCS activator DEM to mice; metabolites in the livers by CE-TOFMS; type: in vivo; conditions: mouse liver
Procedure: Male mice were fasted overnight and anesthetized by an intraperitoneal injection of pentobarbital sodium (60 mg/Kg of body weight). Then, the mice were intraperitoneally injected with BSO, which is aγ-glutamyl cysteine synthase (GCS) inhibitor, and diethylmaleate (DEM), which is an electrophile (GCS activator), both at a dose of 4 mmol/kg of body weight (888 mg of BSO, 688 mg of DEM). The mouse as a healthy subject was intraperitoneally injected with physiological saline. Liver specimens (about 300 mg) were excised from the mice 1 hour after administration (5 times each).
The liver specimens (about 300 mg) excised from the mice were immediately placed in 1 ml of methanol containing an internal standard substance and were homogenized to inactivate an enzyme, thereby stopping enhancement of metabolism. After 500 μl of pure water was added to the mixture, 300 μl of solution was taken out. To this solution, 200 μl of chloroform was added. After thorough stirring, the solution was further centrifuged at 15000 rpm for 15 minutes at 4° C. After allowing to stand, 300 μl of separated water-methanol phase was passed through a 5 kDa molecular weight cutoff filter for centrifugal ultrafiltration to deproteinize it. […]
The method described below was used to confirm that the detected γ-Glu-X peptides and γ-Glu-X-Gly peptides were synthesized in a glutathione-biosynthesis pathway.

[2] = test system: glutathione-biosynthesis pathway; assay: Administration of BSO and DEM to mice; γ-Glu-X and γ-Glu-X-Gly peptides in the murine serum; type: in vivo; conditions: mouse serum, compared to the normal state
Procedure: Male mice were fasted overnight and anesthetized by an intraperitoneal injection of pentobarbital sodium (60 mg/Kg of body weight). Then, the mice were intraperitoneally injected with BSO, which is aγ-glutamyl cysteine synthase (GCS) inhibitor, and diethylmaleate (DEM), which is an electrophile (GCS activator), both at a dose of 4 mmol/kg of body weight (888 mg of BSO, 688 mg of DEM). The mouse as a healthy subject was intraperitoneally injected with physiological saline. Liver specimens (about 300 mg) were excised from the mice 1 hour after administration (5 times each). On the other hand, regarding the substances in the murine serum, γ-Glu-X peptides and γ-Glu-X-Gly peptides that were decreased by administration of BSO and were increased by administration of an electronic substance, DEM, compared to the normal state were only γ-[…]AB and ophthalmic acid (γ-[…]AB-Gly) (FIG. 22). Therefore, it is expected that, in the case of a mouse, only γ-[…]AB and ophthalmic acid are increased in the blood when glutathione is decreased because of the oxidative stress caused by electrophiles or the like.

SMILES	ophthalmic acid (glutathione; in inverse proportion to the glutathione level)	glutathione (glutathione)	amount of glutathione in the livers ([1]; 1 hour after i.p. 4 mmol/kg, compared to the healthy mouse)	γ-Glu-X and γ-Glu-X-Gly peptidic substances in the liver other than γ-Glu-Cys, GSH and γ-Glu-Ser-Gly ([1]; compared to the normal)	γ-Glu-2AB and ophthalmic acid (γ-Glu-2AB-Gly) in the murine serum [2]
CC(=O)Nc1ccc(O)cc1 [APAP, Acetaminophen]	increased rapidly	decreased	–	–	–
CCCCS(=N)(=O)CCC(N)C(=O)O (centres unmarked) [BSO, buthionine sulfoximine]	–	–	decreased rapidly	decreased	decreased
